Test [1] addresses T1, HCV polymerase 1A (Δ21 NS5B) (Hepatitis C virus genotype 1a, UniProt P27958).
T1 construct: 20 to 50nM Δ21 NS5B
The test can be described thus: HCV Polymerase Inhibition Assay (1a). It counts as biochemical. The procedure:
The reaction was initiated by the addition of 20μM CTP, 20μM ATP, 1μM ^3H-UTP (10mCi/umol), 5nM template RNA and 0.1 U/μl RNase inhibitor (RNasin, Promega), and allowed to proceed for 2 to 4h at room temperature. Reaction volume was 50μl. The reaction was terminated by the addition of 1 volume of 4mM spermine in 10mM Tris-Cl pH 8.0, 1mM EDTA. After incubation for at least 15 min at room temperature, the precipitated RNA was captured by filtering through a GF/B filter (Millipore) in a 96 well format. The filter plate was washed three times with 200μl each of 2mM spermine, 10mM Tris-Cl pH 8.0, lmM EDTA, and 2 times with ethanol. After air-drying, 30μl of Microscint 20 scintillation cocktail (Packard) was added to each well, and the retained cpm were determined by scintillation counting. […] Retained cpm were plotted vs. inhibitor concentration and fit to equation 1 using non-linear regression (ref. 1) to obtain the IC50 values: Retained cpm=A[sqrt{(IC50+It−Et)^2+4*IC50*Et}−([…])]
Ref. Morrison, J. F. and S. R. Stone. […] Approaches to the study and analysis of the inhibition of enzymes by slow- and tight-binding inhibitors. Comments Mol. Cell. Biophys.
(§1) The sequence of the template RNA used was: 5′-[…]-3′

Test [2] concerns the target T2, HCV polymerase 1B (Δ21 NS5B) (Hepatitis C virus genotype 1b, UniProt P26663).
T2 construct: 20 to 50nM Δ21 NS5B
The test can be described thus: biochemical. How it is done: Either two-fold serial dilutions (fractional inhibition assay) or a narrower range of dilutions spanning the IC50 of the inhibitor (tight binding assay) of the inhibitors were incubated with 20mM Tris-Cl pH 7.4, 2 mM MnCl2, 1 mM dithiothreitol, 1 mM ethylene diamine tetraacetic acid (EDTA), 60 to 125μM GTP and 20 to 50nM Δ21 NS5B (HCV Strain 1B (BK, Genbank accession number M58335, or H77, Genbank accession number AF011751)) for 15min at room temperature. The reaction was initiated by the addition of 20μM CTP, 20μM ATP, 1μM ^3H-UTP (10mCi/umol), 5nM template RNA and 0.1 U/μl RNase inhibitor (RNasin, Promega), and allowed to proceed for 2 to 4h at room temperature. Reaction volume was 50μl. The reaction was terminated by the addition of 1 volume of 4mM spermine in 10mM Tris-Cl pH 8.0, 1mM EDTA. After incubation for at least 15 min at room temperature, the precipitated RNA was captured by filtering through a GF/B filter (Millipore) in a 96 well format. The filter plate was washed three times with 200μl each of 2mM spermine, 10mM Tris-Cl pH 8.0, lmM EDTA, and 2 times with ethanol. After air-drying, 30μl of Microscint 20 scintillation cocktail (Packard) was added to each well, and the retained cpm were determined by scintillation counting. […] Retained cpm were plotted vs. inhibitor concentration and fit to equation 1 using non-linear regression (ref. 1) to obtain the IC50 values: Retained cpm=A[sqrt{(IC50+It−Et)^2+4*IC50*Et}−([…])]
Ref. Morrison, J. F. and S. R. Stone. 1985. Approaches to the study and analysis of the inhibition of enzymes by slow- and tight-binding inhibitors. Comments Mol. Cell. Biophys. 2: 347-368.
as §1

Test [3] has as its system genotype 1a-H77 subgenomic replicon cell line. The test can be described thus: microbe, parasite or virus in culture. It counts as cell-based, HCV. The settings on record: Hepatitis C virus, 72 h, read-out: EC50 1a.
The test system of test [4] is genotype 1b-Con1 subgenomic replicon cell line. The test can be described thus: microbe, parasite or virus in culture. It counts as cell-based, HCV. The settings on record: Hepatitis C virus, 72 h, read-out: EC50 1b.

Read-outs that look alike come from different tables or passages of the source.

Broadly, the IC50 is the point on the concentration scale where inhibition reaches its midpoint. What is called EC50 is the concentration at which the effect is half-maximal.

T1 sequence (P27958 2421-2990, stated change not applied): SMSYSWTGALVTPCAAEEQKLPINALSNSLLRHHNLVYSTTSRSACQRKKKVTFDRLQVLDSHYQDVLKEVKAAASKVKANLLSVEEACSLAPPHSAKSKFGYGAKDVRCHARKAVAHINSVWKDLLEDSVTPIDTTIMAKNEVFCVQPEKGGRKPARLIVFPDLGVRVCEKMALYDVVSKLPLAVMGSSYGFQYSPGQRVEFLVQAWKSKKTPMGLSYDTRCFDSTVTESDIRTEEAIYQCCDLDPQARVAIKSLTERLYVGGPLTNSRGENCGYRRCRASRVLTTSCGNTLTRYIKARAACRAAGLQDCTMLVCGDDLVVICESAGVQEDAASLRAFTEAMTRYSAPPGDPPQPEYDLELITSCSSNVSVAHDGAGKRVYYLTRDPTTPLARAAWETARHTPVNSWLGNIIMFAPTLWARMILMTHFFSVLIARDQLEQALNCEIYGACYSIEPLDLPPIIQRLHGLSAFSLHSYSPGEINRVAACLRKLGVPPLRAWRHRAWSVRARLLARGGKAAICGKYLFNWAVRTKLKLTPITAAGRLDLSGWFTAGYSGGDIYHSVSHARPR
T2 sequence (P26663 2420-2989, stated change not applied): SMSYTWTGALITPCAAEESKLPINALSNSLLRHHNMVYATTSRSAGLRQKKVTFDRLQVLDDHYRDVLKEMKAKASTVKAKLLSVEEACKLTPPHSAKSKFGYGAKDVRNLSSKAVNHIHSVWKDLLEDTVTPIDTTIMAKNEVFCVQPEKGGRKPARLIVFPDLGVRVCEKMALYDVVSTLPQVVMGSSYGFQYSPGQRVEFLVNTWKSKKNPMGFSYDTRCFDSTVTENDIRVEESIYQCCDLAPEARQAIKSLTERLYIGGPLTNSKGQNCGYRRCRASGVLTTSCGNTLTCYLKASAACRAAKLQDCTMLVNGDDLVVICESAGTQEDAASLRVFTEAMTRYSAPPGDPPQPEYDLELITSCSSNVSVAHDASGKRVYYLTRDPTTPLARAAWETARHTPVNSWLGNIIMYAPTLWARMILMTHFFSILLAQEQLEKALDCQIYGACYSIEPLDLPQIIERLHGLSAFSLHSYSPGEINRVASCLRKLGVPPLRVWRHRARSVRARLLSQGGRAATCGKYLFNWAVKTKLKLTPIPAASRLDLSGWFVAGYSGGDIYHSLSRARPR

With `COc1c(-c2nc3cc(NS(C)(=O)=O)ccc3[nH]2)cc(N2CCC(=O)NC2=O)cc1C(C)(C)C` [IA-L0-2.1, N-(2-(3-tert-butyl-5-(2,4-dioxotetrahydropyrimidin-1(2H)-yl)-2-methoxyphenyl)-1H-benzo[d]imidazol-5-yl)methanesulfonamide], the half-maximal inhibitory concentration (IC50) in test [1] and in test [2] was 0.1 to 1 µM throughout. In addition, the EC50 in test [3] and in test [4] was more than 1 µM throughout.

Take `COc1c(-c2nc3ccc(NS(C)(=O)=O)cc3s2)cc(N2CCC(=O)NC2=O)cc1C(C)(C)C` [IA-L0-2.2, N-(2-(3-tert-butyl-5-(2,4-dioxotetrahydropyrimidin-1(2H)-yl)-2-methoxyphenyl)benzo[d]thiazol-6-yl)methanesulfonamide]: the IC50 in test [1] and in test [2] was 0.01 to 0.1 µM in each case. Besides, the EC50 in test [3] was in the range of 0.1 to 1 µM; in test [4] it was 0.01 to 0.1 µM.

Consider `COc1c(-c2nc3ccccc3s2)cc(N2CCC(=O)NC2=O)cc1C(C)(C)C` [IA-L0-2.3, 1-(3-(benzo[d]thiazol-2-yl)-5-tert-butyl-4-methoxyphenyl)dihydro pyrimidine-2,4(1H,3H)-dione], for which the 50% inhibitory concentration (IC50) in test [1] and in test [2] was 0.1 to 1 µM throughout. Besides, the EC50 in test [3] and in test [4] was 0.1 to 1 µM each time.

As to `COc1c(-c2nc3cc(NS(C)(=O)=O)ccc3s2)cc(N2CCC(=O)NC2=O)cc1C(C)(C)C` [IA-L0-2.4, N-(2-(3-tert-butyl-5-(2,4-dioxotetrahydropyrimidin-1(2H)-yl)-2-methoxyphenyl)benzo[d]thiazol-5-yl)methanesulfonamide], the IC50 in test [1] and in test [2] was 0.01 to 0.1 µM each time. For the same compound, the results for the EC50 in test [3] and in test [4] were more than 1 µM and 0.1 to 1 µM, respectively.

`COc1c(-c2nc3ccc(NS(C)(=O)=O)cc3o2)cc(N2CCC(=O)NC2=O)cc1C(C)(C)C` [IA-L0-2.5, N-(2-(3-tert-butyl-5-(2,4-dioxotetrahydropyrimidin-1(2H)-yl)-2-methoxyphenyl)benzo[d]oxazol-6-yl)methanesulfonamide]: the IC50 in test [1] and in test [2] was 0.1 to 1 µM each time. The EC50 in test [3] and in test [4] was more than 1 µM throughout.

As for `COc1c(-c2nc3ccc([N+](=O)[O-])cc3o2)cc(N2CCC(=O)NC2=O)cc1C(C)(C)C` [IA-L0-2.6, 1-(3-tert-butyl-4-methoxy-5-(6-nitrobenzo[d]oxazol-2-yl)phenyl) dihydropyrimidine-2,4(1H,3H)-dione], the IC50 in test [1] and in test [2] was 0.1 to 1 µM in each case. The EC50 in test [3] and in test [4] was more than 1 µM each time.

Take `COc1c(-c2nc3cc([N+](=O)[O-])ccc3o2)cc(N2CCC(=O)NC2=O)cc1C(C)(C)C` [IA-L0-2.7, 1-(3-tert-butyl-4-methoxy-5-(5-nitrobenzo[d]oxazol-2-yl)phenyl) dihydropyrimidine-2,4(1H,3H)-dione]: the IC50 in test [1] and in test [2] was 0.1 to 1 µM throughout. The figures for the EC50 in test [3] and in test [4] were more than 1 µM and 0.1 to 1 µM, respectively.

As for `COc1c(-c2nc3cc(NS(C)(=O)=O)ccc3o2)cc(N2CCC(=O)NC2=O)cc1C(C)(C)C` [IA-L0-2.8, N-(2-(3-tert-butyl-5-(2,4-dioxotetrahydropyrimidin-1(2H)-yl)-2-methoxyphenyl)benzo[d]oxazol-5-yl)methanesulfonamide], the IC50 in test [1] and in test [2] was 0.01 to 0.1 µM in each case. The concentration giving a half-maximal response (EC50) in test [3] lay in the range of 0.1 to 1 µM; in test [4], 0.01 to 0.1 µM.

As to `COc1c(-c2ccc3cc(NS(C)(=O)=O)ccc3c2)cc(N2CCC(=O)NC2=O)cc1C(C)(C)C` [IA-L0-2.9, N-(6-(3-tert-butyl-5-(2,4-dioxotetrahydropyrimidin-1(2H)-yl)-2-methoxyphenyl)naphthalen-2-yl)methanesulfonamide], the IC50 in test [1] and in test [2] was less than 0.01 µM each time. The EC50 in test [3] and in test [4] was less than 0.01 µM throughout.

Turning to `COc1c(-c2ccc3ccccc3c2)cc(-n2ccc(=O)[nH]c2=O)cc1C(C)(C)C` [IB-L0-2.1, 1-(3-tert-butyl-4-methoxy-5-(naphthalen-2-yl)phenyl)pyrimidine-2,4(1H,3H)-dione], the IC50 in test [1] and in test [2] was 0.1 to 1 µM each time. The EC50 in test [3] was more than 1 µM; in test [4] it was 0.1 to 1 µM.

In the case of `COc1ccc2cc(-c3cc(-n4ccc(=O)[nH]c4=O)cc(C(C)(C)C)c3OC)ccc2c1` [IB-L0-2.2, 1-(3-tert-butyl-4-methoxy-5-(6-methoxynaphthalen-2-yl)phenyl)pyrimidine-2,4(1H,3H)-dione], the IC50 in test [1] and in test [2] was 0.1 to 1 µM in each case. The half-maximal effective concentration (EC50) in test [3] and in test [4] was more than 1 µM throughout.

For `COc1c(-c2ccc3cc(NS(C)(=O)=O)ccc3c2)cc(-n2ccc(=O)[nH]c2=O)cc1C(C)(C)C` [IB-L0-2.3, N-(6-(3-tert-butyl-5-(2,4-dioxo-3,4-dihydropyrimidin-1(2H)-yl)-2-methoxyphenyl)naphthalen-2-yl)methanesulfonamide], the IC50 in test [1] and in test [2] was less than 0.01 µM in each case. Besides, the EC50 in test [3] and in test [4] was less than 0.01 µM in each case.

As to `COc1c(-c2ccc3c(c2)CC/C3=N\NS(C)(=O)=O)cc(-n2ccc(=O)[nH]c2=O)cc1C(C)(C)C` [IB-L0-2.4, (E)-N′-(5-(3-tert-butyl-5-(2,4-dioxo-3,4-dihydropyrimidin-1(2H)-yl)-2-methoxyphenyl)-2,3-dihydro-1H-inden-1-ylidene)methanesulfonohydrazide], the IC50 in test [1] and in test [2] was less than 0.01 µM in each case. For the same compound, the 50% effective concentration (EC50) in test [4] was less than 0.01 µM.

`CC(C)(C)c1cc(-c2ccc3cc(NS(C)(=O)=O)ccc3c2)cc(-n2ccc(=O)[nH]c2=O)c1` [IB-L0-2.8, N-(6-(3-tert-butyl-5-(2,4-dioxo-3,4-dihydropyrimidin-1(2H)-yl)phenyl)naphthalen-2-yl)methanesulfonamide]: the IC50 in test [1] and in test [2] was 0.01 to 0.1 µM throughout. Further, the EC50 in test [4] was in the range of 0.01 to 0.1 µM.

Turning to `COc1c(-c2ccc3nc(-n4c(C)ccc4C)sc3c2)cc(-n2ccc(=O)[nH]c2=O)cc1C(C)(C)C` [IB-L0-2.47, 1-(3-tert-butyl-5-(2-(2,5-dimethyl-1H-pyrrol-1-yl)benzo[d]thiazol-6-yl)-4-methoxyphenyl)pyrimidine-2,4(1H,3H)-dione], the IC50 in test [1] and in test [2] was more than 1 µM in each case.

Take `COc1c(-c2ccc3cc(NS(C)(=O)=O)ccc3n2)cc(-n2ccc(=O)[nH]c2=O)cc1C(C)(C)C` [IB-L0-2.48, N-(2-(3-tert-butyl-5-(2,4-dioxo-3,4-dihydropyrimidin-1(2H)-yl)-2-methoxyphenyl)quinolin-6-yl)methanesulfonamide]: the IC50 in test [1] and in test [2] was more than 1 µM in each case.

`COc1c(-c2ccc3nc(NC(C)=O)sc3c2)cc(-n2ccc(=O)[nH]c2=O)cc1C(C)(C)C` [IB-L0-2.49, N-(6-(3-tert-butyl-5-(2,4-dioxo-3,4-dihydropyrimidin-1(2H)-yl)-2-methoxyphenyl)benzo[d]thiazol-2-yl)acetamide]: the IC50 in test [1] and in test [2] was more than 1 µM each time.

Take “N,N′-(6,6′-(5-(2,4-dioxo-3,4-dihydropyrimidin-1(2H)-yl)-2-methoxy-1,3-phenylene) bis(naphthalene-6,2-diyl))dimethanesulfonamide [IB-L0-2.76]”: the IC50 in test [1] (HCV polymerase 1a, read-out: IC50 1a) is 0.1 to 1 µM; in test [2] (HCV polymerase 1b, read-out: IC50 1b) it was more than 1 µM.

Source of the values: US8501238B2, “Anti-infective agents and uses thereof” (priority 2007, dated 2013).
